From patent US20090105461A1, “Calicheamicin conjugates” (priority 2004, published 2009)

Key:
[1] = system: LOVO colon carcinoma xenografts; experiment: LOVO colon carcinoma xenografts; type: in vivo, nude mice; conditions: for tumor inhibition of LOVO xenografts: hu3S193-AcBut-CM experiments (FIGS. 5, 6)
Experimental: (§1) The efficacy in vivo of hu3S193-AcBut-CM was tested on subcutaneous xenografts from gastric (N87, FIG. 3), prostate (LNCaP, FIG. 4) and colon (LOVO, FIGS. 5 and 6) carcinomas. Subcutaneous tumors of N87, LOVO and LNCaP were grown in athymic nude mice (Charles River, Wilmington, Mass.). Female mice of 1.5 to 3 months old were injected with respectively 5×10^6 N87 or 10^7 LOVO cells per mouse. LNCaP cells were injected in male nude mice that were 3 months old. To grow tumors, N87 and LNCaP cells had to be mixed (1:1, vol/vol) with […]® (Collaborative Biomedical Products, Belford, Mass.) prior to injection. Two perpendicular diameters of the tumor were measured at least once a week by means of calipers. The tumor volume was calculated according to the formula of Attia & Weiss: A^2×B×0.4.
Unless indicated otherwise, 3 doses of each conjugate and control were given intraperitoneally with an interval of 4 days (Q4Dx3). In vivo, hu3S193-AcBut-CM inhibited tumor growth in these three separate models. Hu3S193-AcBut-CM cured mice from gastric carcinoma xenografts (N87) having high expression of Lewis Y antigen (FIG. 3). […] In the LOVO model, the efficacy of hu3S193-AcBut-CM was improved by increasing the amount of the conjugate (FIG. 5).
Mice bearing LOVO xenografts of 100 mm^3 were treated with control conjugates (RITUXAN-AcBut-CM, FIG. 5A), PBS (FIGS. 5A and 5B), hu3S193 (FIG. 5B) or hu3S193-AcBut-CM (FIG. 5B). Except for the group treated with Hu3S193-AcBut-CM at 4 μg/dose, mice in each group received three doses i.p. The amount of each dose in calicheamicin equivalents is specified in the legend. Conjugates and controls were injected at day 1, 5 and 9. The groups were designated as follows: hu3S193-AcBut-CM, received an additional regimen of three doses at day 43, 47 and 51. The number of mice per group (n) is reported in C. Differences in tumor size at day 30 were probed for statistical significance by a 2-tailed Students t-test.
Mice bearing LOVO xenografts of 100 mm^3 were treated with control conjugates: RITUXAN-AcBut-CM and CMA (FIG. 6A), PBS or hu3S193-AcBut-CM (FIG. 6B). Mice in each group received three or four doses i.p. The amount of each dose in calicheamicin equivalents is specified in the legend. Conjugates and controls were injected at day 1, 5 and 9. The group designated: hu3S193-AcBut-CM*, received an additional dose at day 13. The number of mice per group equals n and p-values of a 2-tailed Students t-test were determined.
Mice bearing LOVO xenografts were tested to investigate the potential benefits of regimens different from 4 μg cal.eq./dose/mouse at Q4DX3. Mice bearing LOVO xenografts of approximately 100 mm^3 were treated with PBS, G193 or various regimens of a control conjugate CMA or CMD. The amount of each dose in calicheamicin equivalents is specified in the legends. The LOVO-model was chosen for this type of experiment because of the marginal efficacy seen with 4 μg cal.eq. at Q4DX3.

[2] = system: N87 gastric carcinoma xenografts; experiment: N87 gastric carcinoma xenografts; type: in vivo, nude mice; conditions: 150 mm^3 xenografts
Experimental: (§2) The antitumor efficacy of calicheamicin conjugated to anti-Lewis Y antibodies was evaluated against human carcinoma xenografts established subcutaneously (SC) in nude mice. The evaluated xenografts included carcinomas that had either high or low expression of the Lewis Y antigen and carcinomas from breast, colon, lung, and prostate. Mice bearing solid tumors with an average mass of 150 to 300 mg were randomized to various treatment groups.
as §1
Unless indicated otherwise, 3 doses of each conjugate and control were given intraperitoneally with an interval of 4 days (Q4Dx3). […]

[3] = system: MX1 breast carcinoma xenografts; experiment: MX1 breast carcinoma xenografts; type: in vivo, nude mice; conditions: MX1, at least 35 days
Experimental: The effect of CMD-193 on the growth of established xenografts of carcinomas that had low expression of the Lewis Y antigen was also examined in MX1 breast carcinoma. CMA-676 was used as a nonbinding control conjugate. Nude mice explanted with MX1 breast carcinoma were treated with various dosages of CMD-193 (40 to 240 mg/kg) or CMA-676 (a negative control). Tumor growth was recorded for at least 35 days. In contrast, CMA-676 was effective only at the highest dosages (160 mg/kg) tested.

[4] = system: L2987 lung carcinoma xenografts; experiment: L2987 lung carcinoma xenografts; type: in vivo, nude mice; conditions: 0.375 to 3 μg/dose/mouse, Q4DX3 i.p.
Experimental: (§3) The efficacy in vivo of CMD-193 was tested on subcutaneous xenografts from gastric (N87), lung (L2987), cervical/epidermoid (A431/Le^y) and colon (LS174T and LOVO) carcinomas. Unless indicated otherwise, all conjugates and controls were injected intraperitoneally according to Q4DX3 schedule. To monitor for tumor targeting due to the carrier function of immunoglobulin, CMA was used as a negative control. Based on the studies described below, a dosage of 15 mg/kg of CMD-193 (equivalent to a conjugated antibody protein dosage in the range of 562 to 803 mg/m^2) was considered to be the minimum efficacious dose (MED).
Mice bearing L2987 xenografts of 100 mm^3 were treated with a control conjugate (CMA), PBS or CMD. Mice in each group received three doses i.p. The amount of each dose in calicheamicin equivalents is specified in the legends. Conjugates and controls were injected at day 1, 5 and 9. […] The error bars represent the standard deviation of the average tumor volume at each time point. The number of mice (expressed as a percentage) with a tumor size smaller than the initial tumor average of each group was plotted as a function of the observation period in FIG. 12. Treatment with CMA (FIG. 12A) or CMD (FIG. 12B) is compared to treatment with vehicle control (PBS).
For the experiment shown in FIG. 13, 10 mice received L2987 xenografts. […]

[5] = system: LS174T colon carcinoma xenografts; experiment: LS174T colon carcinoma xenografts; type: in vivo, nude mice
Experimental: as §3
Mice bearing LS174T xenografts of 150 mm^3 were treated with a control conjugate (CMA), PBS or CMD. Mice in each group received three doses i.p. The amount of each dose in calicheamicin equivalents is specified in the legends. Conjugates and controls were injected at day 1, 5 and 9. LS174T tumors proliferated so fast that in the control group all the mice had to be killed within a 51-day period because of the large tumor burden (>2.5 cm^3). In the group treated with 4 ug cal.eq. CMD (Q4DX3), 3 out of five mice were killed within 44 days because of a large tumor burden (1/3) or because of necrosis of the tumor (2/3). Of the other two mice one remained tumor-free for 125 days while the other one had developed a small tumor. […] CMD (Q4DX3) or 4 ug cal.eq CMA (Q4DX3). […]

[6] = system: HL-60 promyelocytic leukemia cells; conditions: HL-60 leukemia cells
[7] = system: human carcinoma xenografts; experiment: Human carcinoma xenografts in nude mice (all models); type: in vivo; conditions: doses equivalent to hu3S193-AcBut-CM; earlier experiments, data not shown
Experimental: as §2, §3

Row | Compound | period of statistically significant difference in tumor size from PBS ([1]; 2 μg cal.eq. per mouse Q4Dx3) | period of statistically significant difference in tumor size from PBS ([1]; 4 μg cal.eq. per mouse Q4Dx3) | tumor inhibition of LOVO xenografts [1] | growth inhibition versus hu3S193-AcBut-CM or CMD at equivalent doses [2] | lowest dosage with significant growth inhibition [3] | efficacy on LOVO xenografts ([1]; CMD experiment (FIG. 18)) | growth of L2987 xenografts [4] | cures ([5]; 2 ug cal.eq. Q4DX3) | cures ([5]; 4 ug cal.eq. Q4DX3) | major biotransformation pathways (cytosol) | metabolites after incubation (human liver microsomes and cytosol) | biotransformation pathways (microsomes) | metabolites produced [6] | tumor inhibition by free CM [7]
1 | RITUXAN-AcBut-CM: calicheamicin-conjugate of RITUXAN (anti-CD20), control conjugate | 16 days | 16 days | negligible tumor inhibition | – | – | – | – | – | – | – | – | – | – | –
2 | CMA-676: calicheamicin conjugate of an anti-CD33 antibody, used as control conjugate | – | – | negligible tumor inhibition | inhibited growth significantly less | 160 mg/kg | lack of efficacy | significant growth inhibitory effect | one out of the five | No cures | – | – | – | – | –
3 | CCN(C(C)=O)[C@H]1CO[C@@H](O[C@H]2[C@H](O[C@H]3C#C/C=C\C#C[C@]4(O)CC(=O)C(NC(=O)OC)=C3/C4=C\CSSC(C)(C)CC(=O)NN)O[C@H](C)[C@@H](NO[C@H]3C[C@H](O)[C@H](SC(=O)c4c(C)c(I)c(O[C@@H]5O[C@@H](C)[C@H](O)[C@@H](OC)[C@H]5O)c(OC)c4OC)[C@@H](C)O3)[C@@H]2O)C[C@@H]1OC [CM, N-acetyl gamma calicheamicin dimethyl hydrazide] | – | – | – | – | – | – | – | – | – | formation of NAc-epsilon calicheamicin and it's derivatives | Many metabolites were found | hydroxylation and demethylation | Several metabolites, including NAc-epsilon calicheamicin and its isomer | never inhibited
